Tests used:
[1] = system: HCT116 cells; assay: Cell cycle analysis by flow cytometry, HCT116; assay type: cell-based, human; conditions: IC50, 24 h, compared to the control
In short: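 Cells seeded at 1 × 10^5/well, adhered 24 h; attached and detached cells pooled, fixed overnight in 70% cold ethanol. Staining with RNase and propidium iodide (30 min, 37 °C, dark) preceded flow cytometry of sub-G1, G0/G1, S and G2/M fractions, in quadruplicate.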

[2] = system: PC3 (prostate cancer); assay: MTT assay, PC3 cells; assay type: cell-based, human
In short: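 Cells at 1 × 10^4 per well were exposed to compounds for 72 h, in MEM (HCT116), DMEM high glucose (MDA-MB-231, HaCaT) or RPMI (PC3), each with 10% FBS and 20 mM HEPES. Viability is given as MTT reduction relative to medium-only control (%).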

[3] = system: standard bacterial strains; assay: MIC, summary over standard bacterial strains; assay type: cell-based; conditions: Staphylococcus aureus, ATCC 29213, 25923, and 6538; S. aureus strains other than NCTC 4163; read-out: MIC against the other three strains of S. aureus
Text: To evaluate the antibacterial effectiveness of chloroquinobenzothiazine derivatives, various bacterial strains from international microbe collections such as the American Type Culture Collection (ATCC) and the National Collection of Type Culture (NCTC) were examined, alongside a panel of clinical rods. This included two Gram-negative organisms, E. coli ATCC 25922 and P. aeruginosa ATCC 15442, and a series of six Gram-positive strains: S. aureus NCTC 4163; S. aureus ATCC 29213, 25923, and 6538; and S. epidermidis ATCC 12228 and 35984. The antimicrobial activity was examined using the Minimal Inhibitory Concentration (MIC) method, following standard CLSI procedures with slight adjustments. The MIC was determined using the two-fold serial broth microdilution method in 96-well microtitration plates containing Mueller-Hinton II broth medium (Becton Dickinson, Franklin Lakes, NJ, USA). The final inoculum for all tested bacteria was adjusted to […] (colony-forming units per milliliter). The stock solution of the tested compounds was prepared in dimethyl sulfoxide (DMSO) and diluted to a maximum of 1% solvent content with a sterile medium.

SMILES: CN1CCCCC1CCN1c2cc(Cl)ccc2Sc2cc3ccccc3nc21 (stereo not shown) [Compound 11, 8-Chloro-6-(2-(1-methylpiperidin-2-yl)ethyl)-quino[3,2-b]benzo[1,4]thiazine]
- increase in the cell amount at the sub-G1 phase, HCT116 [1]: 2 fold
- IC50 ([2]; Homo sapiens, PC-3, MTT, 72 h, read-out: IC50 PC3): 16.7 ± 1.8 µM
- SI PC3 ([2]; SI = IC50 for normal cell line (HaCaT)/IC50 cancer cell line): 0.7
- MIC [3]: > 128 µg/mL

— PMC11050599, “Novel Tetracyclic Azaphenothiazines with the Quinoline Ring as New Anticancer and Antibacterial Derivatives of Chlorpromazine” (International Journal of Molecular Sciences, 2024)
